One test relates to Antibody 1A9. The test is described as follows: CEDIA ecstasy-class assay on a Hitachi clinical chemistry analyzer. In kind it is binding, mouse. As to conditions: for detection in the CEDIA ecstasy-class MDMA assay: in words. On the procedure:
Antibodies obtained using any of the aforementioned techniques are screened or purified not only for their ability to react with an ecstasy-class compound, but also for a low cross-reactivity with potential interfering substances. “Cross reactivity” is determined in a quantitative immunoassay by establishing a standard curve using known dilutions of the target analyte, e.g., MDMA. […] The cross-reactivity is the apparent concentration divided by the actual concentration multiplied by 100. […] Alternatively, the cross-reactivity can be determined in the same type of immunoassay in which the antibody will ultimately be used.
• a. Preparation of Reagents:
Enzyme Donor (ED) Reagent was prepared as a liquid reagent with the components below:
Assay Protocol: The assay was performed on a Hitachi clinical chemistry analyzer as follows: Sample was pipetted into a reaction cuvette. EA reagent, containing antibody, was added. The mixture was incubated at 37° C. for approximately 5 minutes. ED reagent containing […] was subsequently added, and the incubation continued for 4 minutes at 37° C. The rate of substrate hydrolysis was measured photometrically at 570 nm (with subtraction of background at 660 nm) from four to five minutes after ED addition.

A short description of test [1]: Standard CEDIA DAU Amphetamines assay, Hitachi 911. As to conditions: methamphetamine = 100.
For test [2], the system named is 1A9 anti-ecstasy antibody. As to the kind of experiment: Enhanced CEDIA DAU Amphetamines assay (1A9 antibody and ED28-(MB-MDA)2 added). As to conditions: methamphetamine = 100.
The mark [3] stands for this setting: Antibody 1A9, Experiment 2, concentration 600,000 ng/mL.
The mark [4] stands for this setting: Antibody 1A9, Experiment 1, concentration 300 ng/mL.
Setting [5] is: Antibody 1A9, Experiment 1, concentration 1000 ng/mL.
Setting [6] is: antibody 1A9, summary of detected ecstasy-class compounds.
[7] abbreviates: Antibody 1A9, Experiment 1, concentration 5000 ng/mL.
[8] abbreviates: Antibody 1A9, Experiment 2, concentration 1,000,000 ng/mL.

This is an account of results in patent US6946547B2, “Ecstasy-class analogs and use of same in detection of ecstasy-class compounds” (Microgenics Corporation, priority 2000, dated 2005).

Marks after values point to notes of the source that are not given here.

Turning to `CN[C@@H](C)[C@@H](O)c1ccccc1` [pseudoephedrine], the Cross-Reactivity in the test on Antibody 1A9 (setting [3]) amounted to 0.0017%.
With `CCNC(C)Cc1ccc2c(c1)OCO2` (centres unmarked) [MDEA, N-ethyl-3,4-methylenedioxyamphetamine], the Cross-Reactivity in the test on Antibody 1A9 (setting [4]) is 155* %; in the test on Antibody 1A9 (setting [5]) it was 484%; with Antibody 1A9 (setting [6]) it was 155%. The “Cross-reactivity, Standard CEDIA Amphetamines” value in test [1] (concentration 300 ng/ml) was determined as 22; in test [1] (concentration 500 ng/ml), 21. In test [2] (concentration 300 ng/ml), the “Cross-reactivity, Enhanced CEDIA Amphetamines” value stood at 153.
With `CNC(C)Cc1ccc(O)c(OC)c1` (centres unmarked) [HMMA, 4-hydroxy-3-methoxymethamphetamine], the Cross-Reactivity with Antibody 1A9 (setting [4]), in the test on Antibody 1A9 (setting [5]) and in the test on Antibody 1A9 (setting [7]) was less than 0.1% in each case. Also, the “detection in the CEDIA ecstasy-class MDMA assay” value in the test on Antibody 1A9 (antibody 1A9) is “detected neither”.
For `CN[C@@H](C)Cc1ccccc1` [Methamphetamine], the Cross-Reactivity in the test on Antibody 1A9 (setting [3]) is reported as 0.056%. Moreover, in the test with Antibody 1A9 (antibody 1A9), the “detection in the CEDIA ecstasy-class MDMA assay” value is on record as “detected neither”. Also, the “Cross-reactivity, Standard CEDIA Amphetamines” value in test [1] (concentration 300 ng/ml) and in test [1] (concentration 500 ng/ml) was 100 throughout. Further, the “Cross-reactivity, Enhanced CEDIA Amphetamines” value in test [2] (concentration 300 ng/ml) and in test [2] (concentration 500 ng/ml) was 100 in each case.
`CC(N)C(O)c1ccccc1` (centres unmarked) [phenylpropanolamine]: the Cross-Reactivity with Antibody 1A9 (setting [8]) is 0.0041%.
As for `CC(N)Cc1ccc2c(c1)OCO2` (centres unmarked) [MDA, 3,4-methylenedioxyamphetamine], the Cross-Reactivity with Antibody 1A9 (setting [4]) is given as 55%; in the test on Antibody 1A9 (setting [5]) it was 68* %; in the test with Antibody 1A9 (setting [7]) it was 63%; in the test with Antibody 1A9 (setting [6]), 55%. Also, the entries for the “Cross-reactivity, Standard CEDIA Amphetamines” value in test [1] (concentration 300 ng/ml) and in test [1] (concentration 500 ng/ml) were 5 and 4, respectively. For the same compound, the “Cross-reactivity, Enhanced CEDIA Amphetamines” value in test [2] (concentration 300 ng/ml) amounted to 81; in test [2] (concentration 500 ng/ml), 91.
On to `CCC(Cc1ccc2c(c1)OCO2)NC` (centres unmarked) [MBDB, N-methyl-1-(3,4-methylenedioxyphenyl)-2-butanamine], for which the Cross-Reactivity with Antibody 1A9 (setting [4]) is 23%; in the test with Antibody 1A9 (setting [5]), 29* %; with Antibody 1A9 (setting [7]) it was 18%; in the test on Antibody 1A9 (setting [6]), 23%. Moreover, the “Cross-reactivity, Standard CEDIA Amphetamines” value in test [1] (concentration 300 ng/ml) is listed as 64; in test [1] (concentration 500 ng/ml), 73. Besides, the “Cross-reactivity, Enhanced CEDIA Amphetamines” value is given as 80 in test [2] (concentration 300 ng/ml) and 97 in test [2] (concentration 500 ng/ml).
For the compound `CCC(N)Cc1ccc2c(c1)OCO2` (centres unmarked) [BDB, 1-(3,4-methylenedioxyphenyl)-2-butanamine], the Cross-Reactivity is reported as 33% in the test on Antibody 1A9 (setting [4]), 50* % in the test with Antibody 1A9 (setting [5]), 30% in the test with Antibody 1A9 (setting [7]) and 33% with Antibody 1A9 (setting [6]). Besides, the “Cross-reactivity, Standard CEDIA Amphetamines” value in test [1] (concentration 300 ng/ml) was 5; in test [1] (concentration 500 ng/ml) it was 7. For the same compound, the “Cross-reactivity, Enhanced CEDIA Amphetamines” value came out at 105 in test [2] (concentration 300 ng/ml) and 125 in test [2] (concentration 500 ng/ml).
For the compound (±)ephedrine, the Cross-Reactivity with Antibody 1A9 (setting [8]) is listed as 0.0047%.
In the case of `CNC(C)Cc1ccc2c(c1)OCO2` (centres unmarked) [MDMA, 3,4-methylenedioxymethamphetamine], the Cross-Reactivity with Antibody 1A9 (setting [6]) worked out at 100%. Also, the “Cross-reactivity, Standard CEDIA Amphetamines” value was 49 in test [1] (concentration 300 ng/ml) and 50 in test [1] (concentration 500 ng/ml). Also, the “Cross-reactivity, Enhanced CEDIA Amphetamines” value in test [2] (concentration 300 ng/ml) turned out to be 129.
